The values that follow are results of earlier work, collected in US9655859B2, “Accordion pill comprising levodopa for an improved treatment of Parkinson's disease symptoms” (INTEC PHARMA LTD., priority 2010, dated 2017).

Molecules are shown by their SMILES.

For the data set, the target named is T1, peripheral DOPA decarboxylase (Homo sapiens, UniProt P20711).
T1 construct: host or cells: endogenous enzyme of peripheral tissues in vivo
T1 sequence (P20711 1-480): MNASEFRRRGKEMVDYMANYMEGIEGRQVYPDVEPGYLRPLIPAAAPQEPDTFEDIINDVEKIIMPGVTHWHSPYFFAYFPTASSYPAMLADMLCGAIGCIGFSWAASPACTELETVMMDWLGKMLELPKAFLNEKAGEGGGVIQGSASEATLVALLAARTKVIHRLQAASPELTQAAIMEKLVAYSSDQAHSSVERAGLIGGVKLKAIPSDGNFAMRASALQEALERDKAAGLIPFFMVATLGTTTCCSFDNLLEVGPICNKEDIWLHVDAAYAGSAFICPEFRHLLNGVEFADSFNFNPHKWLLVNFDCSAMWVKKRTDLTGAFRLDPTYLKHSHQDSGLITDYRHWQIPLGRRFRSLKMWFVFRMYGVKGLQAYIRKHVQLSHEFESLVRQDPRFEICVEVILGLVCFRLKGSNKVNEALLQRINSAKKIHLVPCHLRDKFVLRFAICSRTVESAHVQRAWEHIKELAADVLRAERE
To be noted: studies cited.

With `C[C@@](Cc1ccc(O)c(O)c1)(NN)C(=O)O` [carbidopa], the “carbidopa amount saturating peripheral DOPA decarboxylase” value was 70 to 100 mg a day.
